In patent US20240002354A1, “ANTIDIABETIC COMPOUNDS AND COMPOSITIONS” (REZUBIO PHARMACEUTICALS CO., LTD, priority 2020, published 2024):
pEC50: −log10 of the molar value.

Each molecule was assayed against T1, GPR40 (Homo sapiens, UniProt O14842) (assay: IP1 accumulation assay (Cisbio IP-One HTRF) in HEK293 cells stably expressing GPR40). Conditions: HEK293 cells stably expressing GPR40, 37° C. for 2 hours, % Effect relative to AMG-1638 positive control.
T1 construct: expressed in transfected cells
T1 sequence (O14842 whole entry): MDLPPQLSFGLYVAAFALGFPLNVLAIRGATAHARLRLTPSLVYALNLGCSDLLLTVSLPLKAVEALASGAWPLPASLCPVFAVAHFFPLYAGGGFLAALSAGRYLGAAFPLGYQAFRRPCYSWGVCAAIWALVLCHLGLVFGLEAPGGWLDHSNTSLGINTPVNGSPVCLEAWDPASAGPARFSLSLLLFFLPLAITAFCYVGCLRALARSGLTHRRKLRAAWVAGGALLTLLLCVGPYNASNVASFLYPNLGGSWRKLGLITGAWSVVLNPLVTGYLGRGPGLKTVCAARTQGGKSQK
Format: cell-based
Experimental: IP1 accumulation assay was used to evaluate the potency of compounds. HEK293 cells stably expressing GPR40 were cultured in 5% CO2 incubator (ThermoFisher) in maintenance media (Dulbecco's modified Eagle's medium with 4.5 g/L of glucose, 10% fetal bovine serum, 100 μg/mL Hygromycin, and Penicillin (100 U/mL)/Streptomycin (100 μg/mL)) till 100% confluency. Cells were harvested freshly, spun down at 300×g for 5 min, and resuspended in pre-warmed 1× stimulant buffer from Cisbio IP-One HTRF Detection kit (Cisbio). Cell density was adjusted to 2.0×10^6 cells/mL. DMSO was used as blank control and AMG-1638 (CAS #: 1142214-62-7) as positive control. Compounds were prepared at 10 mM in DMSO and 5 nL of 3× serially diluted compounds (10 concentrations) were added to each well of the 384-LDV assay plate (Corning) by using ECHO 550 (Labcyte). Five μL of cells in suspension were transferred into each well by using Multidrop Combi Reagent Dispenser (ThermoFisher). Assay plate was then sealed and incubated at 37° C. for 2 hours. IP-d2 reagent and anti-IP1 reagent were prepared following the manual (Cisbio). Five μL of IP1-d2 and then 5 μL of anti-IP1 antibody was added to each well sequentially. Assay plate was incubated at room temperature for 60 min and then read at 665 nm/615 nm on an Envision plate reader (PerkinElmer). The ratio of values obtained at 665 nm and 615 nm was used for calculation of IP1 accumulation: % Effect=(Ratiosample−Ratioblank)/(RatioAMG-1638−Ratioblank)×100. Dose curve was fitted and EC50 of each compound was calculated by using XLFit.

SMILES | pEC50
C[C@H](C(=O)O)[C@H](c1ccc2c(c1)O[C@@H](C1CCN(Cc3cc(CN=[N+]=[N-])ccc3OC(F)(F)F)CC1)CC2)C1CC1 [Compound 201] | 7.30 to 9.00
C#CCOc1cc(COc2cccc([C@H](CC)CC(=O)O)c2)ccc1-c1cc(OC)ccc1F [Compound No. 211] | 5.30 to 6.00
CC[C@H](CC(=O)O)c1cccc(OCc2ccc(-c3cc(OC)ccc3F)c(OCc3cn(CCCCCCCCCCCCCCCCCC(=O)O)nn3)c2)c1 [Compound No. 212] | ≤ 5.30
CCCCCCn1cc(COc2cc(COc3cccc([C@H](CC)CC(=O)O)c3)ccc2-c2cc(OC)ccc2F)nn1 [Compound No. 213] | 5.30 to 6.00
COc1ccc(F)c(-c2ccc(COc3cccc([C@@H](CC(=O)O)C4CC4)c3)cc2C(C)(C)N=[N+]=[N-])c1 [Compound No. 216, (S)-3-(3-((2-(2-azidopropan-2-yl)-2′-fluoro-5′-methoxy-[1,1′-biphenyl]-4-yl)methoxy)phenyl)-3-cyclopropylpropanoic acid] | 7.30 to 9.00
C#CC(C)(C)c1cc(COc2cccc([C@@H](CC(=O)O)C3CC3)c2)ccc1-c1cc(OC)ccc1F [Compound No. 217, (S)-3-cyclopropyl-3-(3-((2′-fluoro-5′-methoxy-2-(2-methylbut-3-yn-2-yl)-[1,1′-biphenyl]-4-yl)methoxy)phenyl)propanoic acid] | 7.30 to 9.00
CCCCCCc1cn(C(C)(C)c2cc(COc3cccc([C@@H](CC(=O)O)C4CC4)c3)ccc2-c2cc(OC)ccc2F)nn1 [Compound No. 218, (S)-3-cyclopropyl-3-(3-((2′-fluoro-2-(2-(4-hexyl-1H-1,2,3-triazol-1-yl)propan-2-yl)-5′-methoxy-[1,1′-biphenyl]-4-yl)methoxy)phenyl)propanoic acid] | 6.00 to 6.60
CCCCCCn1cc(C(C)(C)c2cc(COc3cccc([C@@H](CC(=O)O)C4CC4)c3)ccc2-c2cc(OC)ccc2F)nn1 [Compound No. 219, (S)-3-cyclopropyl-3-(3-{2′-fluoro-2-[1-(1-hexyl-1H-[1,2,3]triazol-4-yl)-1-methyl-ethyl]-5′-methoxy-biphenyl-4-ylmethoxy}-phenyl)-propionic acid] | 6.00 to 6.60
COc1ccc(F)c(-c2ccc(COc3cccc([C@@H](CC(=O)O)C4CC4)c3)cc2C(C)(C)n2cc(CCCCCCCCCCCCCCCCCC(=O)O)nn2)c1 [Compound No. 220, (S)-18-(1-(2-(4-((3-(2-carboxy-1-cyclopropylethyl)phenoxy)methyl)-2′-fluoro-5′-methoxy-[1,1′-biphenyl]-2-yl)propan-2-yl)-1H-1,2,3-triazol-4-yl)octadecanoic acid] | 5.30 to 6.00
COc1ccc(F)c(-c2ccc(COc3cccc([C@@H](CC(=O)O)C4CC4)c3)cc2C(C)(C)c2cn(CCCCCCCCCCCCCCCCCC(=O)O)nn2)c1 [Compound No. 221, (S)-18-[4-(1-{4-[3-(2-Carboxy-1-cyclopropyl-ethyl)-phenoxymethyl]-2′-fluoro-5′-methoxy-biphenyl-2-yl}-1-methyl-ethyl)-[1,2,3]triazol-1-yl]-octadecanoic acid] | 6.00 to 6.60
COc1ccc(F)c(-c2ccc(COc3cccc([C@@H](CC(=O)O)C4CC4)c3)cc2C(C)(C)CN=[N+]=[N-])c1 [Compound No. 224] | 7.30 to 9.00
CCCCCCc1cn(CC(C)(C)c2cc(COc3cccc([C@@H](CC(=O)O)C4CC4)c3)ccc2-c2cc(OC)ccc2F)nn1 [Compound No. 225, (S)-3-cyclopropyl-3-(3-{2′-fluoro-2-[2-(4-hexyl-[1,2,3]triazol-1-yl)-1,1-dimethyl-ethyl]-5′-methoxy-biphenyl-4-ylmethoxy}-phenyl)-propionic acid] | 6.60 to 7.30
COc1ccc(F)c(-c2ccc(COc3cccc([C@@H](CC(=O)O)C4CC4)c3)cc2C(C)(C)Cn2cc(CCCCCCCCCCCCCCCCCC(=O)O)nn2)c1 [Compound No. 226, (S)-18-(1-(2-(4-((3-(2-carboxy-1-cyclopropylethyl)phenoxy)methyl)-2′-fluoro-5′-methoxy-[1,1′-biphenyl]-2-yl)-2-methylpropyl)-1H-1,2,3-triazol-4-yl)octadecanoic acid] | 6.60 to 7.30
COC(=O)CCCCCCCCCCCCCCCCCc1cn(CC(C)(C)c2cc(COc3cccc([C@@H](CC(=O)O)C4CC4)c3)ccc2-c2cc(OC)ccc2F)nn1 [Compound No. 227, (S)-3-cyclopropyl-3-(3-((2′-fluoro-5′-methoxy-2-(1-(4-(18-methoxy-18-oxooctadecyl)-1H-1,2,3-triazol-1-yl)-2-methylpropan-2-yl)-[1,1′-biphenyl]-4-yl)methoxy)phenyl)propanoic acid] | ≤ 5.30
C#CCOCC(C)(C)c1cc(COc2cccc([C@@H](CC(=O)O)C3CC3)c2)ccc1-c1cc(OC)ccc1F [Compound No. 228, (S)-3-cyclopropyl-3-(3-((2′-fluoro-5′-methoxy-2-(2-methyl-1-(prop-2-yn-1-yloxy)propan-2-yl)-[1,1′-biphenyl]-4-yl)methoxy)phenyl)propanoic acid] | 6.60 to 7.30
CCCCCCn1cc(COCC(C)(C)c2cc(COc3cccc([C@@H](CC(=O)O)C4CC4)c3)ccc2-c2cc(OC)ccc2F)nn1 [Compound No. 229, (S)-3-cyclopropyl-3-(3-((2′-fluoro-2-(1-((1-hexyl-1H-1,2,3-triazol-4-yl)methoxy)-2-methylpropan-2-yl)-5′-methoxy-[1,1′-biphenyl]-4-yl)methoxy)phenyl) propanoic acid] | 6.00 to 6.60
COc1ccc(F)c(-c2ccc(COc3cccc([C@@H](CC(=O)O)C4CC4)c3)cc2C(OCCCCN=[N+]=[N-])C(C)(C)C)c1 (stereo partly drawn) [Compound No. 232, (3S)-3-(3-((2-(1-(4-azidobutoxy)-2,2-dimethylpropyl)-2′-fluoro-5′-methoxy-[1,1′-biphenyl]-4-yl)methoxy)phenyl)-3-cyclopropylpropanoic acid] | 7.30 to 9.00

The remaining lines, values ahead:

pEC50 | SMILES
6.00 to 6.60 | COc1ccc(F)c(-c2ccc(COc3cccc([C@@H](CC(=O)O)C4CC4)c3)cc2C(C)(C)COCc2cn(CCCCCCCCCCCCCCCCCC(=O)O)nn2)c1 [Compound No. 230]
≤ 5.30 | COC(=O)CCCCCCCCCCCCCCCCCn1cc(COCC(C)(C)c2cc(COc3cccc([C@@H](CC(=O)O)C4CC4)c3)ccc2-c2cc(OC)ccc2F)nn1 [Compound No. 231, (S)-3-cyclopropyl-3-(3-((2′-fluoro-5′-methoxy-2-(1-((1-(18-methoxy-18-oxooctadecyl)-1H-1,2,3-triazol-4-yl)methoxy)-2-methylpropan-2-yl)-[1,1′-biphenyl]-4-yl)methoxy)phenyl)propanoic acid]
7.30 to 9.00 | CCCCCCc1cn(CCCCCOC(c2cc(COc3cccc([C@@H](CC(=O)O)C4CC4)c3)ccc2-c2cc(OC)ccc2F)C(C)(C)C)nn1 (stereo partly drawn) [Compound No. 233]
6.00 to 6.60 | COc1ccc(F)c(-c2ccc(COc3cccc([C@@H](CC(=O)O)C4CC4)c3)cc2C(OCCCCCn2cc(CCCCCCCCCCCCCCCCCC(=O)O)nn2)C(C)(C)C)c1 (stereo partly drawn) [Compound No. 234]
≤ 5.30 | COC(=O)CCCCCCCCCCCCCCCCCc1cn(CCCCCOC(c2cc(COc3cccc([C@@H](CC(=O)O)C4CC4)c3)ccc2-c2cc(OC)ccc2F)C(C)(C)C)nn1 (stereo partly drawn) [Compound No. 235]
7.30 to 9.00 | COc1ccc(F)c(-c2ccc(COc3cccc([C@@H](CC(=O)O)C4CC4)c3)cc2C(OC)C(C)(C)CN=[N+]=[N-])c1 (stereo partly drawn) [Compound No. 236, (3S)-3-(3-((2-(3-azido-1-methoxy-2,2-dimethylpropyl)-2′-fluoro-5′-methoxy-[1,1′-biphenyl]-4-yl)methoxy)phenyl)-3-cyclopropylpropanoic acid]
7.30 to 9.00 | COc1ccc(F)c(-c2ccc(COc3cccc([C@@H](CC(=O)O)C4CC4)c3)cc2CC(C)(C)CN=[N+]=[N-])c1 [Compound No. 237, (S)-3-(3-((2-(3-azido-2,2-dimethylpropyl)-2′-fluoro-5′-methoxy-[1,1′-biphenyl]-4-yl)methoxy)phenyl)-3-cyclopropylpropanoic acid]
6.60 to 7.30 | CCCCCCn1cc(-c2ccc(OC(F)(F)F)c(CN3CCC([C@H]4CCc5ccc([C@H](C6CC6)[C@H](C)C(=O)O)cc5O4)CC3)c2)nn1 [compound 187, (2S,3R)-3-cyclopropyl-3-((R)-2-(1-(5-(1-hexyl-1H-1,2,3-triazol-4-yl)-2-(trifluoro-methoxy)benzyl)piperidin-4-yl)chroman-7-yl)-2-methylpropanoic acid]
7.30 to 9.00 | CCCCCCc1cn(-c2ccc(OC(F)(F)F)c(CN3CCC([C@H]4CCc5ccc([C@H](C6CC6)[C@H](C)C(=O)O)cc5O4)CC3)c2)nn1 [compound 188, (2S,3R)-3-cyclopropyl-3-((R)-2-(1-(5-(4-hexyl-1H-1,2,3-triazol-1-yl)-2-(trifluoro-methoxy)benzyl)piperidin-4-yl)chroman-7-yl)-2-methylpropanoic acid]
7.30 to 9.00 | CCCCCCc1cn(CCc2ccc(OC(F)(F)F)c(CN3CCC([C@H]4CCc5ccc([C@H](C6CC6)[C@H](C)C(=O)O)cc5O4)CC3)c2)nn1 [compound 189, (2S,3R)-3-cyclopropyl-3-((R)-2-(1-(5-(2-(4-hexyl-1H-1,2,3-triazol-1-yl)ethyl)-2-(trifluoro-methoxy)benzyl)piperidin-4-yl)chroman-7-yl)-2-methylpropanoic acid]
